Laboratory results reported in US20200011856A1, “Method for Determining the Effectiveness of Treatment for the Prevention of Heartworm Disease” (priority 2017, published 2020).
Several values for one entry are separate records, joined by “and”; a condition that tells them apart may be missing. Equal values may be shown once.

Tested on: Dirofilaria immitis JYD strain (ivermectin-resistant)
Assay: Infection of NSG mice with ivermectin-resistant JYD strain D. immitis L3, treatment, recovery and count of worms
Type: in vivo
Settings: for % Rec, Mean: group mean; for % Rec: individual mice
[1] = 7823 1.0 mg/kg Days 1, 15, 30, 50 JYD Di L3 per NSG mouse, recovery Days 40-42, Table 20
[2] = 7823 5.0 mg/kg Days 1, 15, 30, 50 JYD Di L3 per NSG mouse, recovery Days 40-42, Table 20

Structure (SMILES): CC(C)C[C@H]1C(=O)O[C@H](C)C(=O)N(C)[C@@H](CC(C)(C)F)C(=O)O[C@H](Cc2ccc(OC(F)(F)F)cc2)C(=O)N(C)[C@@H](CC(C)C)C(=O)O[C@H](C)C(=O)N(C)[C@@H](CC(C)(C)F)C(=O)O[C@H](Cc2ccc(OC(F)(F)F)cc2)C(=O)N1C [compound 2677]
- % Rec, Mean (2677 1 mg/kg Days 1, 15, 30, 50 JYD Di L3 per NSG mouse, recovery Days 41 and 42, Table 18): 8%
- % Rec (2677 1 mg/kg Days 1, 15, 30, 50 JYD Di L3 per NSG mouse, recovery Days 41 and 42, Table 18, 1 mg/kg): 6% and 4% (3×) and 2% and 18% and 16%
- % Red (in vivo, 1 mg/kg): % Red: 81%
- Survival, Mean (in vivo, 1 mg/kg): 4

Structure (SMILES): CC(C)C[C@H]1C(=O)O[C@H](C)C(=O)N(C)[C@@H](CC(C)(C)F)C(=O)O[C@H](Cc2ccc(C(F)(F)F)cc2)C(=O)N(C)[C@@H](CC(C)C)C(=O)O[C@H](C)C(=O)N(C)[C@@H](CC(C)(C)F)C(=O)O[C@H](Cc2ccc(C(F)(F)F)cc2)C(=O)N1C [compound 3615]
- % Red (3615 1 mg/kg Days 1, 15, 30, 50 JYD Di L3 per NSG mouse, Table 18, vs Control): % Red: 40%
- % Rec, Mean (3615 1 mg/kg Days 1, 15, 30, 50 JYD Di L3 per NSG mouse, recovery Days 41 and 42, Table 18): 26%
- % Rec (3615 1 mg/kg Days 1, 15, 30, 50 JYD Di L3 per NSG mouse, recovery Days 41 and 42, Table 18, 1 mg/kg): 24% (2×) and 26% and 30% and 28% and 36% and 16%
- Survival, Mean (in vivo, 1 mg/kg): 13

Structure (SMILES): C[C@H]1OC(=O)[C@H](CC(C)(C)C)N(C)C(=O)[C@@H](Cc2ccc(OC(F)(F)F)cc2)OC(=O)[C@H](CC(C)(C)F)N(C)C(=O)[C@@H](C)OC(=O)[C@H](CC(C)(C)C)N(C)C(=O)[C@@H](Cc2ccc(OC(F)(F)F)cc2)OC(=O)[C@H](CC(C)(C)F)N(C)C1=O [compound 5010]
- % Red (5010 1 mg/kg Days 1, 15, 30, 50 JYD Di L3 per NSG mouse, Table 18, vs Control): % Red: 33%
- % Rec, Mean (5010 1 mg/kg Days 1, 15, 30, 50 JYD Di L3 per NSG mouse, recovery Days 41 and 42, Table 18): 29%
- % Rec (5010 1 mg/kg Days 1, 15, 30, 50 JYD Di L3 per NSG mouse, recovery Days 41 and 42, Table 18, 1 mg/kg): 24% (2×) and 36% and 14% and 34% and 30% and 38%
- Survival, Mean (in vivo, 1 mg/kg): 14

Structure (SMILES): C[C@H]1OC(=O)[C@H](CC2CC2)N(C)C(=O)[C@@H](Cc2ccc(C(C)(C)C)cc2)OC(=O)[C@H](CC(C)(C)F)N(C)C(=O)[C@@H](C)OC(=O)[C@H](CC2CC2)N(C)C(=O)[C@@H](Cc2ccc(C(C)(C)C)cc2)OC(=O)[C@H](CC(C)(C)F)N(C)C1=O [compound 7823]
- % Red (7823 0.1 mg/kg Days 1, 15, 30, 50 JYD Di L3 per NSG mouse, Table 20, vs Control): % Red: 83%
- % Rec, Mean (7823 0.1 mg/kg Days 1, 15, 30, 50 JYD Di L3 per NSG mouse, recovery Days 40-42, Table 20): 4%
- % Rec (7823 0.1 mg/kg Days 1, 15, 30, 50 JYD Di L3 per NSG mouse, recovery Days 40-42, Table 20, 0.1 mg/kg): 6% (2×) and 0% and 8% and 2%
- % Red (7823 0.25 mg/kg Days 1, 15, 30, 50 JYD Di L3 per NSG mouse, Table 20, vs Control): % Red: 91%
- % Rec, Mean (7823 0.25 mg/kg Days 1, 15, 30, 50 JYD Di L3 per NSG mouse, recovery Days 40-42, Table 20): 2%
- % Rec (7823 0.25 mg/kg Days 1, 15, 30, 50 JYD Di L3 per NSG mouse, recovery Days 40-42, Table 20, 0.25 mg/kg): 4% (2×) and 0% (3×)
- % Red (7823 0.5 mg/kg Days 1, 15, 30, 50 JYD Di L3 per NSG mouse, Table 20, vs Control): % Red: 87%
- % Rec, Mean (7823 0.5 mg/kg Days 1, 15, 30, 50 JYD Di L3 per NSG mouse, recovery Days 40-42, Table 20): 3%
- % Rec (7823 0.5 mg/kg Days 1, 15, 30, 50 JYD Di L3 per NSG mouse, recovery Days 40-42, Table 20, 0.5 mg/kg): 0% (2×) and 8% and 4% and 2%
- % Red (7823 1 mg/kg Days 1, 15, 30, 50 JYD Di L3 per NSG mouse, Table 18, vs Control): % Red: 98%
- % Red (7823 1.0 mg/kg Days 1, 15, 30, 50 JYD Di L3 per NSG mouse, Table 20, vs Control): % Red: 100%
- % Rec, Mean [1]: 0%
- % Rec [1]: 0%
- % Rec, Mean (7823 1 mg/kg Days 1, 15, 30, 50 JYD Di L3 per NSG mouse, recovery Days 41 and 42, Table 18): 1%
- % Rec (7823 1 mg/kg Days 1, 15, 30, 50 JYD Di L3 per NSG mouse, recovery Days 41 and 42, Table 18, 1 mg/kg): 2% (2×) and 0% (4×) and 4%
- % Red (7823 5.0 mg/kg Days 1, 15, 30, 50 JYD Di L3 per NSG mouse, Table 20, vs Control): % Red: 100%
- % Rec, Mean [2]: 0%
- % Rec [2]: 0%
- Survival, Mean (in vivo, 0.1 mg/kg): 2
- Survival, Mean (in vivo, 0.25 mg/kg): 1
- Survival, Mean (in vivo, 0.5 mg/kg): 1
- Survival (in vivo, 5 mg/kg): 0
- Survival, Mean (in vivo, 5 mg/kg): 0

Structure (SMILES): CC(C)C[C@H]1C(=O)O[C@H](C)C(=O)N(C)[C@@H](CC(C)(C)F)C(=O)O[C@H](Cc2ccc(C3CCOCC3)cc2)C(=O)N(C)[C@@H](CC(C)C)C(=O)O[C@H](C)C(=O)N(C)[C@@H](CC(C)(C)F)C(=O)O[C@H](Cc2ccc(C3CCOCC3)cc2)C(=O)N1C [compound 8800]
- % Red (8800 1 mg/kg Days 1, 15, 30, 50 JYD Di L3 per NSG mouse, Table 18, vs Control): % Red: 67%
- % Rec, Mean (8800 1 mg/kg Days 1, 15, 30, 50 JYD Di L3 per NSG mouse, recovery Days 41 and 42, Table 18): 14%
- % Rec (8800 1 mg/kg Days 1, 15, 30, 50 JYD Di L3 per NSG mouse, recovery Days 41 and 42, Table 18, 1 mg/kg): 12% (2×) and 16% and 8% and 4% and 26% and 18%
- Survival, Mean (in vivo, 1 mg/kg): 7
